{
  "source": "paper PMC10363545",
  "about": "“The potential use of glycosyl-transferase inhibitors for targeted reduction of S. mutans biofilms in dental materials” (Scientific Reports, 2023)",
  "key": {"GTF-B": {"biological_target": "T1, GTF-B (Streptococcus mutans, UniProt P08987)", "T1 construct": "gene gtfB; recombinant GTF-B", "T1 sequence (P08987 35-1476)": "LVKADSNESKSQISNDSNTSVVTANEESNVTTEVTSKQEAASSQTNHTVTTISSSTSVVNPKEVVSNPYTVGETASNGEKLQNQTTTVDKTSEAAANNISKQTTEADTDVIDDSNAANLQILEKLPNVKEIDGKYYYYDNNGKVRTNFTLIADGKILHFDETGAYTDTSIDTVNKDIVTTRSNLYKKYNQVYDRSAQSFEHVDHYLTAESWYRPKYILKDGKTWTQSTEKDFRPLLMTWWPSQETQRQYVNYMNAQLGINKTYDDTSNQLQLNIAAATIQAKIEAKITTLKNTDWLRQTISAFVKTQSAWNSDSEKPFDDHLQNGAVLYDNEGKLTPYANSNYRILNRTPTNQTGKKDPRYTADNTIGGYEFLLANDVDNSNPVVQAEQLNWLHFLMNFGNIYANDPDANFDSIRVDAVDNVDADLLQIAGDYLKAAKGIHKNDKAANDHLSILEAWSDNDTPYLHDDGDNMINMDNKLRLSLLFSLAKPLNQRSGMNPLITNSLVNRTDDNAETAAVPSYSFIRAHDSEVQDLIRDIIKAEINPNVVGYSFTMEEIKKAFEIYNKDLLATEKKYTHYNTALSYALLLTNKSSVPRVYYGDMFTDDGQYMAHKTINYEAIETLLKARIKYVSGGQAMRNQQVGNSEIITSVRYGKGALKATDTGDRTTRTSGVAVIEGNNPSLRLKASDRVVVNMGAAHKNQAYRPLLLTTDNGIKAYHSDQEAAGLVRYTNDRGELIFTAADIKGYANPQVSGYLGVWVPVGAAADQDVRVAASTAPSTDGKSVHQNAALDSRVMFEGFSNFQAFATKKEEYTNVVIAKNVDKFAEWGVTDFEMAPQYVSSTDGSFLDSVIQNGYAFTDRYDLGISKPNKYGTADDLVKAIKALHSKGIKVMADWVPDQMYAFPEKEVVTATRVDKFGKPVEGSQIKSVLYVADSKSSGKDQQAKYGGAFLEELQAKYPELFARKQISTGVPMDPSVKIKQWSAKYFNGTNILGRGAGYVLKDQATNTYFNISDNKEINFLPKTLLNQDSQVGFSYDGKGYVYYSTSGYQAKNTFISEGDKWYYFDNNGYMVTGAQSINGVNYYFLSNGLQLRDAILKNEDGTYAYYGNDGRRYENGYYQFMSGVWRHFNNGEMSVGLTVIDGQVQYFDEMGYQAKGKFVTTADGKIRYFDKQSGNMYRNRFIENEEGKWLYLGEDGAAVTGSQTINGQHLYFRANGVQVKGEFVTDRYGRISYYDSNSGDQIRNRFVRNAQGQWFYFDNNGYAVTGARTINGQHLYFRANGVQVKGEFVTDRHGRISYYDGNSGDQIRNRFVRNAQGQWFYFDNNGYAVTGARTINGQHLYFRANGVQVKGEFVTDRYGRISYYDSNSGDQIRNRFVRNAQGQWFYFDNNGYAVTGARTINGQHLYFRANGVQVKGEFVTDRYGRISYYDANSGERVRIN", "test": "pNPG hydrolysis kinetics with recombinant enzyme (Vmax reduced […]); gel zymography at […] ([…] inhibition)", "assay_type": "biochemical"}, "GTF-C": {"biological_target": "T2, GTF-C (Streptococcus mutans, UniProt P13470)", "T2 construct": "gene gtfC; recombinant GTF-C", "T2 sequence (P13470 35-1455)": "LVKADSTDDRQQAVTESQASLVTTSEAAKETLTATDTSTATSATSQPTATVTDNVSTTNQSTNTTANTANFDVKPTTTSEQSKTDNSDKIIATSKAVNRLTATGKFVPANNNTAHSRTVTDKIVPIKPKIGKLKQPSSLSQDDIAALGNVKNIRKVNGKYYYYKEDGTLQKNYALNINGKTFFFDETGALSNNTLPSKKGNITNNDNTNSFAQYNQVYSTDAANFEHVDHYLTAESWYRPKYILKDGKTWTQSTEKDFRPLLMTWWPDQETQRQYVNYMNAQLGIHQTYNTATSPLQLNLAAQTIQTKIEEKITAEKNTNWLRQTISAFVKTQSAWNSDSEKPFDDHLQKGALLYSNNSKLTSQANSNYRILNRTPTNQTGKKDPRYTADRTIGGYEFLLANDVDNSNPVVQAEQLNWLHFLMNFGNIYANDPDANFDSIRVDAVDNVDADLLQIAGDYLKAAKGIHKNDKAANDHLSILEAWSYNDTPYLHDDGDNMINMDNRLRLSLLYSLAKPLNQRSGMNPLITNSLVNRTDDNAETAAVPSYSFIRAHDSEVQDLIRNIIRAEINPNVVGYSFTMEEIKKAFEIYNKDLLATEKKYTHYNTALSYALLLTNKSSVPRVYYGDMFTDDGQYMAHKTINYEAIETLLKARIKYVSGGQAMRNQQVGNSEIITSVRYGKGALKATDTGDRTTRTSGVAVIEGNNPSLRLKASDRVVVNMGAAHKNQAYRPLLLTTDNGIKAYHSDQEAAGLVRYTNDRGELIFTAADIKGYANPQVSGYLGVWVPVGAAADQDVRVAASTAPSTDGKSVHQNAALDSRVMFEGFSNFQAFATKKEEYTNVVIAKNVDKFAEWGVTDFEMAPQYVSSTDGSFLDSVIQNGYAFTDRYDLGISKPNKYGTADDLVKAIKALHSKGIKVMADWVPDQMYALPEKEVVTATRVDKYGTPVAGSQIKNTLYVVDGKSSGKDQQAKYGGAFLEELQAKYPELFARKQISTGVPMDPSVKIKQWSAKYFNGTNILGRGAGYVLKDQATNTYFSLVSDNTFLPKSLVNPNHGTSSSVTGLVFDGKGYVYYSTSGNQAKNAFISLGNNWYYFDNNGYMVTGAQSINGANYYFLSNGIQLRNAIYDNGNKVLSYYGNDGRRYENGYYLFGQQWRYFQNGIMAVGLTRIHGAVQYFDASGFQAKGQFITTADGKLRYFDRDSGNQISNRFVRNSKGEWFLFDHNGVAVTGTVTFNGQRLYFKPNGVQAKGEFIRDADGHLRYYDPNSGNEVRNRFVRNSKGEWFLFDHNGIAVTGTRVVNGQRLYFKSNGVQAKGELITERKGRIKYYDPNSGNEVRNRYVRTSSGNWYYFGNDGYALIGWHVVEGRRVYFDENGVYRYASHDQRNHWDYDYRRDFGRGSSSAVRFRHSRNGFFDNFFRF", "test": "dynamic light scattering glucan polymerization assay with recombinant GTF-C at […] sucrose; also pNPG hydrolysis kinetics and gel zymography", "assay_type": "biochemical"}},
  "data": [
    {"smiles": "NC(=O)c1cc(OCCOCCOCCOCCO)ccc1NC(=O)c1cc2cc([N+](=O)[O-])ccc2s1", "note": "[G43-C3-TEG]", "values": [
      {"measurement": "% reduction of Vmax", "setting": "GTF-B", "value": "39 % reduction of Vmax"},
      {"measurement": "IC50", "setting": "GTF-C", "value": 23.5, "unit": "µM"}
    ]}
  ]
}
